Assay results as given in patent US11015061B2, “Phthalocyanine-based compound and uses of same” (YAMAMOTO CHEMICALS, INC., priority 2017, dated 2021).

How the values were obtained:
Format in all cases: physicochemical
[1] = Absorption spectrum of toluene solution (maximum absorption, gram absorption coefficient); conditions: for gram absorption coefficient: at maximum absorption
Procedure: A toluene solution of the compound obtained in this way had maximum absorption at 734.0 nm, and the gram absorption coefficient thereof was 1.21×10^5 mL/g·cm. The absorption spectrum chart thereof is illustrated in FIG. 1.

[2] = Visible light transmittance of chloroform solution; conditions: spectrum converted to transmittance 10% at near-infrared maximum absorption wavelength
Procedure: The visible light transmittance of the phthalocyanine-based compound of the present invention and the comparative example compounds was measured by the following measurement method.
Each of the phthalocyanine compounds ([…]) and approximately 90 mL of chloroform were put into a 100 mL volumetric flask, and the solution in the flask was irradiated with ultrasonic waves for 30 minutes and left to stand for 2 hours at room temperature. Then, chloroform was added thereto such that the meniscus of the solution matched up with the calibration mark on the volumetric flask, thereby preparing a 10 mg/L phthalocyanine solution. The prepared solution was put into a 1 cm×1 cm cell made of PYREX (registered trademark), and the absorption spectrum thereof was measured using a spectrophotometer (produced by Hitachi, Ltd.: Spectrophotometer U-3500).
The absorption spectrum measured as above was converted such that the absorbance became 1.0, that is, the transmittance became 10% at the maximum absorption wavelength in a near-infrared range, thereby obtaining a transmission spectrum. […] At 460 nm, the transmittance of the compound of the present invention was approximately the same as the transmittance of Comparative Examples 1 and 2.

[3] = Tts (total solar transmittance) of heat ray shielding film; conditions: heat ray shielding film (5 g compound, 50 g acryl resin LP-45M, 2.5 μm on PET) on 3 mm glass plate; JIS R3106
Description: The phthalocyanine compound (Specific Example (1)-30) produced in Example 1 (5 g), 50 g of an acryl resin LP-45M (trade name, produced by Soken Chemical & Engineering Co., Ltd.), 20 g of methyl ethyl ketone, and 20 g of toluene were mixed and stirred together, thereby producing a resin composition.
As a transparent substrate, a polyethylene terephthalate film (PET film) having a thickness of 100 μm was bar-coated with the resin composition such that the thickness thereof became 2.5 μm, and then the applied resin composition was dried for 3 minutes at 100° C. Furthermore, the other surface of the PET film (surface not being coated with the resin composition) was bar-coated with a transparent acryl copolymer-based pressure sensitive adhesive such that the thickness thereof became 20 μm, and the applied pressure sensitive adhesive was dried and cured for 3 minutes at 100° C. Thereafter, a release film was bonded to the surface of the pressure sensitive adhesive, thereby producing a heat ray shielding film.
(§1) In the evaluation test, the release film was peeled from the produced heat ray shielding film, then the heat ray shielding film was compressed on a 5 cm×5 cm×3 mm (thickness) glass plate, and a test piece created in this way was used.
By using U-3500 type recording spectrophotometer produced by Hitachi, Ltd. as a measurement instrument, Tts of the laminated glass sample was measured based on JIS R3106 “Testing method for transmittance, reflectance, emissivity, and solar heat gain coefficient of flat glasses”.
Tts (Total solar energy transmitted through a glazing) represents a total solar transmittance.

[4] = Heat resistance test of heat ray shielding film; conditions: 200 hours at 100° C., absorbance integrated 400 to 900 nm
Procedure: as §1
For a heat resistance test, the test piece used for measuring the spectrum before test as described above was treated with heat for 200 hours at a temperature of 100° C. in a thermostat (produced by Yamato Scientific co., ltd.: IG400). By using the spectrophotometer, the absorption spectrum of the heat-treated test piece was measured and adopted as a spectrum after heat resistance test.
(§2) In each of the spectra measured as above before and after the light fastness⋅heat resistance test, the values of absorbance within a range of 400 to 900 nm were integrated, and a difference between the integrated value before the light fastness⋅heat resistance test and the integrated value after the light fastness⋅heat resistance test was calculated.
(§3) The difference ΔE between the absorbance before the light fastness⋅heat resistance test and the absorbance after the light fastness⋅heat resistance test is expressed by the following equation. ΔE (%)={E(400 to 900 nm in E1)−E(400 to 900 nm in E2)}/E(400 to 900 nm in E1)×100
E1 represents the spectrum before test, E2 represents the spectrum after test, and Σ represents integration of the values of absorbance.
The larger the value of ΔE, the greater the spectrum change between before and after the light fastness⋅heat resistance test.

[5] = Light fastness test of laminated glass; conditions: xenon light 200 hours at 550 W/h, absorbance integrated 400 to 900 nm
Procedure: The phthalocyanine-based compound (Specific Example (1)-30) produced in Example 1 (0.013 g) was dissolved in 40 g of triethylene glycol-di-2-ethylhexanoate as an organic ester plasticizer. The obtained solution was added to 100 g of a polyvinyl butyral resin (trade name: BH-3, produced by SEKISUI CHEMICAL CO., LTD.), thoroughly melted and kneaded using a mixing roll, and extruded using an extruder, thereby obtaining an interlayer having a thickness of 0.76 mm.
The interlayer was cut in size of 100 mm×100 mm, interposed between heat ray absorbing glass plates (100 mm (length)×100 mm (width)×2.0 mm (thickness)) prepared based on JIS R3208, put into a rubber bag, and deaerated for 20 minutes at a degree of vacuum of 2.6 kPa. Then, the deaerated laminate was moved into an oven and further hold for 30 minutes at 90° C. to vacuum press. Thereafter, the laminate was compressed for 20 minutes in an autoclave under the condition of a temperature of 130° C. and a pressure of 1.3 MPa, thereby obtaining a laminated glass sample.
For a light fastness test, the absorption spectrum of the laminated glass was measured using a spectrophotometer (produced by Hitachi, Ltd.: Spectrophotometer U-3500) and adopted as a spectrum before light fastness test. Then, the laminated glass used for measuring the spectrum before test was irradiated with light for 200 hours at 550 W/h by using a xenon light fastness tester (produced by Toyo Seiki Seisaku-sho, Ltd.: SUNTEST XLS+). The absorption spectrum of the laminated glass irradiated with light was measured using the spectrophotometer and adopted as a spectrum after light fastness test.
as §2, §3
E1 represents the spectrum before test, E2 represents the spectrum after test, and Σ represents integration of values of absorbance. The larger the value of ΔE, the greater the spectrum change between before and after the light fastness⋅heat resistance test.

Row | SMILES | maximum absorption [1] | gram absorption coefficient [1] | Transmittance (%) 460 nm [2] | Transmittance (%) 610 nm [2] | Tts [3] | ΔE (%) Heat resistance [4] | ΔE (%) Light fastness [5]
1 | COCCCCc1ccc(CCCCOC)c2c1-c1nc-2nc2[n-]c(nc3nc(nc4[n-]c(n1)c1c(CCCCOC)ccc(CCCCOC)c41)-c1c(CCCCOC)ccc(CCCCOC)c1-3)c1c(CCCCOC)ccc(CCCCOC)c21.[O]=[V+2] [Specific Example (1)-30] | 734.0 nm | 121000 mL/g/cm | 98.1% | 88.4% | 86.1% | 6% | 5%
2 | COc1cccc(OCCCCc2ccc(CCCCOc3cccc(OC)c3)c3c2-c2nc-3nc3[n-]c(nc4nc(nc5[n-]c(n2)c2c(CCCCOc6cccc(OC)c6)ccc(CCCCOc6cccc(OC)c6)c52)-c2c(CCCCOc5cccc(OC)c5)ccc(CCCCOc5cccc(OC)c5)c2-4)c2c(CCCCOc4cccc(OC)c4)ccc(CCCCOc4cccc(OC)c4)c32)c1.[O]=[V+2] [Specific Example (1)-39] | 735.5 nm | 74000 mL/g/cm | 97.7% | 88.1% | 85.9% | 3% | 4%
